Test results: paper PMC8608967, “KDS2010, a Newly Developed Reversible MAO-B Inhibitor, as an Effective Therapeutic Candidate for Parkinson’s Disease” (Neurotherapeutics, 2021)

Tests used:
[1] = target: T1, human recombinant MAO-B (hMAO-B) (Homo sapiens, UniProt P27338); experiment: In vitro MAO-B enzyme assay (H2O2 release, absorbance 570 nm); type: biochemical
T1 construct: purchased Sigma Aldrich
T1 sequence (P27338 1-520): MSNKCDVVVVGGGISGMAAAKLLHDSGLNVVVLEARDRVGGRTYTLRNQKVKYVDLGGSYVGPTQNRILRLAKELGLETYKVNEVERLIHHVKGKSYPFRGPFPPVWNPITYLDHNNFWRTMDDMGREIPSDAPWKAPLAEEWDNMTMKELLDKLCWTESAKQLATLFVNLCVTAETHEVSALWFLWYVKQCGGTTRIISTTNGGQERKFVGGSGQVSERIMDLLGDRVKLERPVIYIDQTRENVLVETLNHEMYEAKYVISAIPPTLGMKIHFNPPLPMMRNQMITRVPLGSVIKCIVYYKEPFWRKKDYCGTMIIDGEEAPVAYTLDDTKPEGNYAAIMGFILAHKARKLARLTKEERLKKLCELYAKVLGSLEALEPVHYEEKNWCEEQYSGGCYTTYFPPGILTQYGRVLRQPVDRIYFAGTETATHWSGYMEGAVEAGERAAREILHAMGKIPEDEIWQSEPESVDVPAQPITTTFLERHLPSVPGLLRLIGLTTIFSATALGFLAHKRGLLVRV
Method: In brief, human recombinant MAO-A (hMAO-A) and MAO-B (hMAO-B) (Sigma Aldrich) were diluted in 50 mM phosphate buffer (~ 0.3 μg MAO-A protein/well or ~ 2.5 μg MAO-B protein/well), and the test compound was added in DMSO to a final concentration from 0.1 nM to 10 μM. The amount of hydrogen peroxide (H2O2) released after addition of enzyme substrate (p-tyramine for MAO-A or benzylamine for MAO-B) was quantified by measuring the absorbance increase at 570 nm on a microplate reader.

[2] = tested on: MPTP-induced PD mouse model; experiment: MPTP mouse model: vertical grid test and coat hanger test; type: in vivo; details: MPTP mice
Method: Group allocation and outcome assessment, but not the conduct of experiments and data analysis, were performed in a blinded manner. Throughout the study, confounders were not controlled. An acclimation period of 7 days was allowed for animals to stabilize in a new environment before model induction. […] Treatment drugs were dissolved in 100 μL of water and total dose (in mg) was calculated according to individual body weight (in kg).
The MPTP model was established using the acute regimen of four intraperitoneal (i.p.) injections of MPTP-HCl (M0896, Sigma Aldrich, 2 mg/mL in saline, 20 mg/kg for one injection) at 2-h intervals.
Motor deficits of the MPTP-induced PD mouse model were assessed using the vertical grid test as described in the previous study [23]. Briefly, after 2 days of habituation to the testing apparatus, individual mice were gently placed 3 cm from the top, facing upward, and allowed to turn around and climb down. We also performed a coat hanger test as described [24–26]. Briefly, a mouse was gently hung on the middle of a coat hanger and allowed to ascend to the top. Performance was graded as follows: 0, falling off the hanger within 20 s; 1, moving to the side-bar of the hanger; 2, reaching the side-bar of the hanger; 3, climbing the side-bar of the hanger; 4, moving to the top of the hanger; 5, climbing and reaching the safe zone. The test was performed twice and each trial lasted a maximum of 3 min.

[3] = tested on: MPTP-induced PD mouse model; experiment: MPTP mouse model: glial reactivity (GFAP, LCN2, Iba1 staining, western blot); type: in vivo; details: MPTP mice
Method: (§1) Throughout the study, confounders were not controlled.
After extensive washing, sections were incubated with corresponding fluorescent secondary antibodies for 2 h and then washed with three times in PBS. Finally, sections were mounted with fluorescent mounting medium (S3023, Dako) and dried. A series of fluorescent images were obtained using an A1 Nikon confocal microscope, and Z-stack images in 3-μm steps were processed for further analysis using ImageJ. Any alteration in brightness or contrast was applied equally to the entire image set.

[4] = tested on: A53T mutant α-synuclein-overexpressing PD model rats; experiment: A53T mutant α-synuclein rat model: TH staining; type: in vivo; details: 10 mg/kg/day for 15 days starting 3 weeks after virus injection
Source text: as §1

[5] = Oral toxicity studies in cynomolgus monkeys (N217019, G217013, G218027); type: in vivo, cynomolgus monkey (Macaca fascicularis); details: cynomolgus monkey, in vivo; cynomolgus monkeys, both sexes, 4-week repeated oral dosing; read-out: No Observed Adverse Effect Level (NOAEL)
Method: (§2) All non-human primate studies were conducted in the Good Laboratory Practice (GLP)-level laboratory of the Korea Institute of Toxicology (KIT, Jeollabuk-do, Korea) and approved by the KIT Institutional Animal Care and Use Committee. Cynomolgus monkeys (Macaca fascicularis) were obtained from the Nafovanny captive-breeding primate facility (Dong Nai Province, Vietnam) and housed individually in stainless cages (543 W × 715L × 818H in mm) during acclimation, pre-treatment, and dosing periods. All animals were at least 24 months old. The environment of the animal room was automatically controlled according to the Standard Operating Procedures of KIT (temperature: 20–29°C, relative humidity: 30–70%, light cycle: 12 h at 300–700 Lux, ventilation: 10–20 times/h, air pressure: negative). Males and females were assigned to treatment groups in a stratified manner using the Pristima System based on most recent body weight. Clinical signs, including mortality, moribundity, general appearance, and behavioral changes, were recorded with date, time, and duration. Body weight was measured prior to the first KDS2010 dose. For oral administration, KDS2010 was dissolved in water. In total, 42 monkeys were administered KDS2010 and ultimately sacrificed for autopsy. The four studies conducted on cynomolgus monkeys are summarized in Table 1 and described in greater detail below.
(§3) In the single-dose escalation study (N118029), each male and female monkey was administered oral KDS2010 at increasing doses of 25, 50, and 100 mg/kg/day once a week. Mortality and general symptoms were observed during the trial period. Body weight was also measured. Blood was collected for hematology, coagulation, and clinical chemistry tests pre-dose (0) and 8, 15, and 22 days post-dose. After administration of 100 mg/kg/day on day 22, an autopsy was performed to observe individual macroscopic findings.
(§4) In the repeated 2-week oral administration toxicity study (G217013) for 4-week dose range finding (DRF), monkeys were assigned to 4 groups of one male and one female. Each group was orally administered KDS2010 at 0, 25, 50, or 100 mg/kg/day once a day for 2 weeks. During the test period, general symptoms were monitored, weight and feed intake measured, and ophthalmological tests performed. Clinical pathological tests (hematology, coagulation, blood biochemistry, and urine tests) were also conducted. All animals were autopsied, during which individual macroscopic findings were recorded, organ weights measured, and samples obtained for histopathology.
(§5) In the repeated 4-week oral administration toxicity with 2-week recovery and toxicokinetic test (G218027), monkeys were assigned to 4 groups of 3 males and 3 females. Each group was orally administered KDS2010 at 0, 10, 20, or 40 mg/kg/day once a day for 4 weeks. Toxicity tests were conducted as described for study G217013. For toxicokinetic measurements, blood samples were collected pre-dose (time 0) and at 1, 2, 4, 6, 8, 10, and 24 h after oral administration on the first day (day 1) and the last day (week 4; day 28) of dosing.

cynomolgus monkeys = experiment: as above; type: in vivo, cynomolgus monkey (Macaca fascicularis)
Method: as §2, §3, §4, §5

[6] = target: T1, human recombinant MAO-B (hMAO-B); details: cited from earlier work
post-stroke recovery = tested on: post-stroke recovery; set-up: method as in PMID 32640227; details: long-term treatment accompanied by rehabilitation training; cited from earlier work
[7] = tested on: MPTP-induced PD mouse model; experiment: MPTP mouse model: TH (DAB) and Nissl staining of SNpc and striatum; details: MPTP mice; for TH optical density in the striatum / TH-positive cell number in the SNpc: vs MPTP plus vehicle
Method: Group allocation and outcome assessment, but not the conduct of experiments and data analysis, were performed in a blinded manner. Throughout the study, confounders were not controlled. An acclimation period of 7 days was allowed for animals to stabilize in a new environment before model induction. […] Treatment drugs were dissolved in 100 μL of water and total dose (in mg) was calculated according to individual body weight (in kg). […] An experiment was halted if body weight decreased by 20% or more after MPTP or 6-hydroxydopamine (6-OHDA) treatment.
The MPTP model was established using the acute regimen of four intraperitoneal (i.p.) injections of MPTP-HCl (M0896, Sigma Aldrich, 2 mg/mL in saline, 20 mg/kg for one injection) at 2-h intervals. All MPTP use and safety precautions were strictly followed as described [18].
Coronal sections for striatum and SNpc were prepared at 30-μm thickness and immunostained using a DAB staining kit (TL-060-QHD, Thermo, MA, USA). […] After washing in PBS 3 times, sections were incubated in Primary Antibody Amplifier Quanto (TA-060-QPB, Thermo) for 5 min, washed again in PBS, incubated in HRP Polymer Quanto for 1 h, washed 4 times in PBS, and dipped for 30 s in a 1:10 mixture of DAB + chromogen and DAB + substrate buffer (K3468, Dako, Denmark). Finally, sections were washed, immersed in mounting medium, and dried.
Every 6th section including the SN was stained with anti-TH and the number of TH-positive neurons counted under low magnification (× 10) from the rostral tip of the SNpc to the caudal end of the substantia nigra pars reticulate (SNpr). […] The total number of neurons per section was estimated according to the optical fractionator formula. The total number of SNpc neurons in a hemisphere was then obtained by multiplying the number counted using Stereo Investigator 11 by the slice interval (six).
Other 30-μm-thick coronal sections from the SNpc were Nissl stained to assess viable cell number. Briefly, slices were stained with 0.1% cresyl violet solution for 3 min, rinsed with distilled water, and placed in a chamber filled with 70% ethanol for 1 min. […] A series of bright field images were obtained using an Olympus microscope. The slices were classified according to AP coordinates and Nissl-positive neurons counted using the counting tool of ImageJ (NIH, MD, USA).

[8] = long-term (30-day) treatment, 10 mg/kg/day oral
[9] = post-treatment, administered 3 days after MPTP
[10] = pre-treatment, 10 mg/kg/day oral, 3 days starting 1 day before MPTP

C[C@H](NCc1ccc(-c2ccc(C(F)(F)F)cc2)cc1)C(N)=O [Compound 18j]
higher MAO-B inhibitory effect of (S)-stereoisomer than (R)-isomer (19j) [1]: eightfold | vertical grid test: time to turn [2, 8]: reduced | vertical grid test: total time [2, 8]: reduced | coat hanger test: motor score [2, 9]: increased | vertical grid test: rate of missed steps [2, 9]: significantly reduced | vertical grid test: time to turn [2, 9]: significantly reduced | vertical grid test: total time [2, 9]: significantly reduced | vertical grid test: rate of missed steps [2, 10]: significantly reduced | vertical grid test: time to turn [2, 10]: significantly reduced | vertical grid test: total time [2, 10]: significantly reduced | coat hanger test: motor function score ([2]; pre-treatment, 10 mg/kg/day oral, vehicle-treated controls 1.8 ± 0.4, score 0-5): 3.6 ± 0.5 | GFAP staining intensity in SNpc [3]: significantly reduced | LCN2 expression in GFAP-positive astrocytes [3]: reversed | number of Iba1-positive microglia in SNpc [3]: significantly reduced | reactive transformation of microglia (larger cell bodies, shorter processes) [3]: reversed | volume of GFAP-positive astrocytes in SNpc (hypertrophy) [3]: eliminated | MPTP-induced changes of TH, GFAP and iNOS expression (western blotting) ([3]; SNpc): all of these changes were reversed | number of remaining TH-positive neurons in the injected SNpc [4]: increased | striatal TH loss [4]: significantly reversed | NOAEL at 4 weeks [5]: 40 mg/kg/day | maximum dose determined in 2-week DRF study (G217013) (cynomolgus monkeys; cynomolgus monkeys, 0, 25, 50, 100 mg/kg/day p.o. for 2 weeks): 50 mg/kg/day | adverse effects in toxicity examinations (cynomolgus monkeys; cynomolgus monkeys, 10, 20, 40 mg/kg/day p.o. for 4 weeks): no adverse effects were observed | findings in single-dose escalation toxicity study (N217019) (cynomolgus monkeys; cynomolgus monkeys, 25, 50 and 100 mg/kg p.o.): no general symptoms, clinical pathological, or gross organ pathology | changes in body weight (cynomolgus monkeys; cynomolgus monkeys, male and female, 10, 20, 40 mg/kg/day p.o. for 4 weeks): no significant changes | mode of MAO-B inhibition ([6]; same binding cavity as selegiline): competitive inhibitor | reversibility of MAO-B inhibition ([6]; with enantiomeric selectivity): reversible | post-stroke recovery (post-stroke recovery): dramatically improved | MPTP-induced reduction in Nissl-positive neurons in SNpc ([7]; post-treatment): but not post-treatment | TH optical density in the striatum ([7]; post-treatment): significantly increased | TH-positive cell number in the SNpc ([7]; post-treatment): significantly increased | MPTP-induced reduction in Nissl-positive neurons in SNpc ([7]; pre-treatment): partially prevented | TH optical density in the striatum ([7]; pre-treatment): significantly increased | TH-positive cell number in the SNpc ([7]; pre-treatment): significantly increased
